Data on 27 compounds can be found in patent US8349826B2, “Oxazolidinone derivatives” (Actelion Pharmaceuticals Ltd., priority 2008, dated 2013).

Converted amounts (≈) assume the structure as drawn.

This experiment has as its system Moraxella catarrhalis A894. Put plainly: MIC by broth microdilution (cation-adjusted Mueller-Hinton Broth, CLSI M7-A7). Format: cell-based. The procedure: Minimal inhibitory concentrations (MICS; mg/l) were determined in cation-adjusted Mueller-Hinton Broth by a microdilution procedure following the description given in “Procedures for Dilution Antimicrobial Susceptibility Tests for Bacteria that Grow Aerobically”, Approved standard, 7th ed., Clinical and Laboratory Standards Institute (CLSI) Document M7-A7, Wayne, Pa., USA, 2006. All Example compounds were tested against several Gram positive and Gram negative bacteria such as S. aureus, E. faecalis, S. pneumoniae, M. catarrhalis, A. baumanii, E. coli or P. aeruginosa.
For orientation: In broth dilution the organism is exposed to a series of concentrations in liquid medium.
For the compound `COc1ccc2ncc(=O)n(CC(N)C(=O)NC[C@@H]3CN(c4ccc5c(c4)OCCO5)C(=O)O3)c2c1` (mixture of isomers) [Example 12, (RS)-2-amino-N-[(R)-3-(2,3-dihydro-benzo[1,4]dioxin-6-yl)-2-oxo-oxazolidin-5-ylmethyl]-3-(7-methoxy-2-oxo-2H-quinoxalin-1-yl)-propionamide], the lowest concentration to inhibit growth (MIC) was 1 µg/mL.

Regarding `COc1ccc2ccc(=O)n(C3CN(CCC4CN(c5ccc6c(c5)NC(=O)CS6)C(=O)O4)C3)c2c1` (racemic) [Example 5, (RS)-6-(5-{2-[3-(7-methoxy-2-oxo-2H-quinolin-1-yl)-azetidin-1-yl]-ethyl}-2-oxo-oxazolidin-3-yl)-4H-benzo[1,4]thiazin-3-one], the MIC was 0.25 µg/mL (≈ 0.494 µM).

For `COc1ccc2ncc(=O)n(CCNCCC3CN(c4cc5c(cn4)OCCO5)C(=O)O3)c2n1` (racemic) [Example 31, rac-4-(2-{2-[3-(2,3-dihydro-[1,4]dioxino[2,3-c]pyridin-7-yl)-2-oxo-oxazolidin-5-yl]-ethylamino}-ethyl)-6-methoxy-4H-pyrido[2,3-b]pyrazin-3-one], the minimal inhibitory concentration (MIC) is 1 µg/mL (≈ 2.13 µM).

Consider `COc1ccc2ncc(=O)n(CCNCCC3CN(c4ccc5c(n4)NC(=O)CO5)C(=O)O3)c2n1` (racemic) [Example 33, rac-6-(5-{2-[2-(6-methoxy-3-oxo-3H-pyrido[2,3-b]pyrazin-4-yl)-ethylamino]-ethyl}-2-oxo-oxazolidin-3-yl)-4H-pyrido[3,2-b][1,4]oxazin-3-one], for which the minimal inhibitory concentration (MIC) is at most 0.031 µg/mL.

In turn, `COc1ccc2ccc(=O)n(CCCNC[C@@H]3CN(c4ccc5c(c4)NC(=O)CS5)C(=O)O3)c2c1` [Example 1, 6-((R)-5-{[3-(7-methoxy-2-oxo-2H-quinolin-1-yl)-propylamino]-methyl}-2-oxo-oxazolidin-3-yl)-4H-benzo[1,4]thiazin-3-one] gave an MIC of at most 0.031 µg/mL.

In the case of `O=C1CSc2ccc(N3C[C@@H](CNCCCn4c(=O)ccc5ccc(Br)cc54)OC3=O)cc2N1` [Example 2], the “MIC Moraxella catarrhalis A894” value is “<=0.031 mg/l”.

The compound `COc1ccc2ccc(=O)n(CCCNC[C@@H]3CN(c4ccc5c(c4)OCCO5)C(=O)O3)c2c1` [Example 3, 1-(3-{[(R)-3-(2,3-dihydro-benzo[1,4]dioxin-6-yl)-2-oxo-oxazolidin-5-ylmethyl]-amino}-propyl)-7-methoxy-1H-quinolin-2-one] showed a minimal inhibitory concentration (MIC) of at most 0.031 µg/mL.

For `O=C1O[C@H](CNCCCn2c(=O)ccc3ccc(Br)cc32)CN1c1ccc2c(c1)OCCO2` [Example 4, 7-bromo-1-(3-{[(R)-3-(2,3-dihydro-benzo[1,4]dioxin-6-yl)-2-oxo-oxazolidin-5-ylmethyl]-amino}-propyl)-1H-quinolin-2-one], the MIC is at most 0.031 µg/mL.

`COc1ccc2ncc(=O)n(CCC(=O)NC[C@@H]3CN(c4ccc5c(c4)NC(=O)CS5)C(=O)O3)c2c1` [Example 6, 3-(7-methoxy-2-oxo-2H-quinoxalin-1-yl)-N-[(R)-2-oxo-3-(3-oxo-3,4-dihydro-2H-benzo[1,4]thiazin-6-yl)-oxazolidin-5-ylmethyl]-propionamide] came in with a minimal inhibitory concentration (MIC) of at most 0.031 µg/mL.

The compound `COc1ccc2ccc(=O)n(CCC(=O)NC[C@@H]3CN(c4ccc5c(c4)OCCO5)C(=O)O3)c2c1` [Example 7, N-[(R)-3-(2,3-dihydro-benzo[1,4]dioxin-6-yl)-2-oxo-oxazolidin-5-ylmethyl]-3-(7-methoxy-2-oxo-2H-quinolin-1-yl)-propionamide] showed an MIC of 0.5 µg/mL (≈ 1.04 µM).

Compound `O=C(CCn1c(=O)ccc2ccc(Br)cc21)NC[C@@H]1CN(c2ccc3c(c2)OCCO3)C(=O)O1` [Example 8, 3-(7-bromo-2-oxo-2H-quinolin-1-yl)-N-[(R)-3-(2,3-dihydro-benzo[1,4]dioxin-6-yl)-2-oxo-oxazolidin-5-ylmethyl]-propionamide] gave an MIC of 0.25 µg/mL (≈ 0.473 µM).

`O=C(CCn1c(=O)ccc2ccc(Br)cc21)NC[C@@H]1CN(c2ccc3c(c2)NC(=O)CS3)C(=O)O1` [Example 9, 3-(7-bromo-2-oxo-2H-quinolin-1-yl)-N-[(R)-2-oxo-3-(3-oxo-3,4-dihydro-2H-benzo[1,4]thiazin-6-yl)-oxazolidin-5-ylmethyl]-propionamide] gave an MIC of at most 0.031 µg/mL.

In the case of `COc1ccc2ncc(=O)n(CCC(=O)NC[C@@H]3CN(c4ccc5c(c4)OCCO5)C(=O)O3)c2c1` [Example 10, N-[(R)-3-(2,3-dihydro-benzo[1,4]dioxin-6-yl)-2-oxo-oxazolidin-5-ylmethyl]-3-(7-methoxy-2-oxo-2H-quinoxalin-1-yl)-propionamide], the MIC was 0.125 µg/mL (≈ 0.26 µM).

The compound `COc1ccc2ccc(=O)n(CCC(=O)NC[C@@H]3CN(c4ccc5c(c4)NC(=O)CS5)C(=O)O3)c2c1` [Example 11, 3-(7-methoxy-2-oxo-2H-quinolin-1-yl)-N-[(R)-2-oxo-3-(3-oxo-3,4-dihydro-2H-benzo[1,4]thiazin-6-yl)-oxazolidin-5-ylmethyl]-propionamide] came in with a minimum inhibitory concentration (MIC) of at most 0.031 µg/mL.

`COc1ccc2ccc(=O)n(C[C@H](O)CNC[C@@H]3CN(c4ccc5c(c4)NC(=O)CO5)C(=O)O3)c2c1.Cl` [Example 13, 6-((R)-5-{[(R)-2-hydroxy-3-(7-methoxy-2-oxo-2H-quinolin-1-yl)-propylamino]-methyl}-2-oxo-oxazolidin-3-yl)-4H-benzo[1,4]oxazin-3-one hydrochloride] yielded a minimal inhibitory concentration (MIC) of at most 0.031 µg/mL.

Turning to `COc1ccc2ccc(=O)n(C[C@H](O)CNC[C@@H]3CN(c4ccc5c(c4)NC(=O)CS5)C(=O)O3)c2c1.Cl` [Example 14, 6-((R)-5-{[(R)-2-hydroxy-3-(7-methoxy-2-oxo-2H-quinolin-1-yl)-propylamino]-methyl}-2-oxo-oxazolidin-3-yl)-4H-benzo[1,4]thiazin-3-one hydrochloride], the minimal inhibitory concentration (MIC) is at most 0.031 µg/mL.

Compound `COc1ccc2ccc(=O)n(C[C@@H](O)CNC[C@@H]3CN(c4ccc5c(c4)NC(=O)CS5)C(=O)O3)c2c1` [Example 15, 6-((R)-5-{[(S)-2-hydroxy-3-(7-methoxy-2-oxo-2H-quinolin-1-yl)-propylamino]-methyl}-2-oxo-oxazolidin-3-yl)-4H-benzo[1,4]thiazin-3-one] registered an MIC of at most 0.031 µg/mL.

On to `COc1ccc2ccc(=O)n(C[C@@H](O)CNC[C@@H]3CN(c4cc5c(cc4F)SCC(=O)N5)C(=O)O3)c2c1` [Example 16, 7-fluoro-6-((R)-5-{[(S)-2-hydroxy-3-(7-methoxy-2-oxo-2H-quinolin-1-yl)-propylamino]-methyl}-2-oxo-oxazolidin-3-yl)-4H-benzo[1,4]thiazin-3-one], for which the MIC was at most 0.031 µg/mL.

`COc1ccc2ncc(=O)n(CCCNC[C@@H]3CN(c4ccc5c(c4)NC(=O)CS5)C(=O)O3)c2n1` [Example 17, 6-methoxy-4-(3-{[(R)-2-oxo-3-(3-oxo-3,4-dihydro-2H-benzo[1,4]thiazin-6-yl)-oxazolidin-5-ylmethyl]-amino}-propyl)-4H-pyrido[2,3-b]pyrazin-3-one] registered an MIC of at most 0.031 µg/mL.

`COc1ccc2ncc(=O)n(CCCNC[C@@H]3CN(c4ccc5c(c4)OCCO5)C(=O)O3)c2n1` [Example 18, 4-(3-{[(R)-3-(2,3-dihydro-benzo[1,4]dioxin-6-yl)-2-oxo-oxazolidin-5-ylmethyl]-amino}-propyl)-6-methoxy-4H-pyrido[2,3-b]pyrazin-3-one] displayed an MIC of at most 0.031 µg/mL.

Compound `COc1ccc2ncc(=O)n(CCCNC[C@@H]3CN(c4ccc5c(c4)NC(=O)CO5)C(=O)O3)c2n1` [Example 19, 6-methoxy-4-(3-{[(R)-2-oxo-3-(3-oxo-3,4-dihydro-2H-benzo[1,4]oxazin-6-yl)-oxazolidin-5-ylmethyl]-amino}-propyl)-4H-pyrido[2,3-b]pyrazin-3-one] showed a minimal inhibitory concentration (MIC) of at most 0.031 µg/mL.

As for `COc1ccc2ncc(=O)n(CCNCC[C@@H]3CN(c4ccc5c(c4)NC(=O)CS5)C(=O)O3)c2n1` [Example 20, 6-methoxy-4-(2-{2-[(R)-2-oxo-3-(3-oxo-3,4-dihydro-2H-benzo[1,4]thiazin-6-yl)-oxazolidin-5-yl]-ethylamino}-ethyl)-4H-pyrido[2,3-b]pyrazin-3-one], the MIC is at most 0.031 µg/mL.

The compound `COc1ccc2ncc(=O)n(CCNCC[C@@H]3CN(c4ccc5c(c4)NC(=O)CO5)C(=O)O3)c2n1` [Example 21, 6-methoxy-4-(2-{2-[(R)-2-oxo-3-(3-oxo-3,4-dihydro-2H-benzo[1,4]oxazin-6-yl)-oxazolidin-5-yl]-ethylamino}-ethyl)-4H-pyrido[2,3-b]pyrazin-3-one] came in with an MIC of at most 0.031 µg/mL.

Take `COc1ccc2ncc(=O)n(C3CN(CC[C@@H]4CN(c5ccc6c(c5)NC(=O)CS6)C(=O)O4)C3)c2n1` [Example 22, 6-methoxy-4-(1-{2-[(R)-2-oxo-3-(3-oxo-3,4-dihydro-2H-benzo[1,4]thiazin-6-yl)-oxazolidin-5-yl]-ethyl}-azetidin-3-yl)-4H-pyrido[2,3-b]pyrazin-3-one]: the MIC is at most 0.031 µg/mL.

Compound `COc1ccc2ncc(=O)n(C3CN(CCC[C@@H]4CN(c5ccc6c(c5)NC(=O)CS6)C(=O)O4)C3)c2n1` [Example 23, 6-methoxy-4-(1-{3-[(R)-2-oxo-3-(3-oxo-3,4-dihydro-2H-benzo[1,4]thiazin-6-yl)-oxazolidin-5-yl]-propyl}-azetidin-3-yl)-4H-pyrido[2,3-b]pyrazin-3-one] showed an MIC of at most 0.031 µg/mL.

Compound `COc1ccc2ncc(=O)n(C3CN(CC[C@H]4CN(c5ccc6c(c5)NC(=O)CS6)C(=O)O4)C3)c2n1` [Example 24, 6-methoxy-4-(1-{2-[(S)-2-oxo-3-(3-oxo-3,4-dihydro-2H-benzo[1,4]thiazin-6-yl)-oxazolidin-5-yl]-ethyl}-azetidin-3-yl)-4H-pyrido[2,3-b]pyrazin-3-one] yielded an MIC of at most 0.031 µg/mL.

`COc1ccc2ncc(=O)n(C[C@H](O)CNC[C@@H]3CN(c4ccc5c(c4)NC(=O)CS5)C(=O)O3)c2n1` [Example 25, 4-((R)-2-hydroxy-3-{[(R)-2-oxo-3-(3-oxo-3,4-dihydro-2H-benzo[1,4]thiazin-6-yl)-oxazolidin-5-ylmethyl]-amino}-propyl)-6-methoxy-4H-pyrido[2,3-b]pyrazin-3-one]: the MIC is at most 0.031 µg/mL.

Usually MIC stands for the lowest concentration that inhibits growth of the organism. A lower MIC goes with greater potency.
